This note sets out measurements from US20060281763A1, “Carboxamide inhibitors of TGFbeta” (priority 2005, published 2006).

Where two headings read alike, the source gives them in different places.

The target in the experiment is T1, TGFβ R1 (Homo sapiens, UniProt P36897).
T1 sequence (P36897 34-503): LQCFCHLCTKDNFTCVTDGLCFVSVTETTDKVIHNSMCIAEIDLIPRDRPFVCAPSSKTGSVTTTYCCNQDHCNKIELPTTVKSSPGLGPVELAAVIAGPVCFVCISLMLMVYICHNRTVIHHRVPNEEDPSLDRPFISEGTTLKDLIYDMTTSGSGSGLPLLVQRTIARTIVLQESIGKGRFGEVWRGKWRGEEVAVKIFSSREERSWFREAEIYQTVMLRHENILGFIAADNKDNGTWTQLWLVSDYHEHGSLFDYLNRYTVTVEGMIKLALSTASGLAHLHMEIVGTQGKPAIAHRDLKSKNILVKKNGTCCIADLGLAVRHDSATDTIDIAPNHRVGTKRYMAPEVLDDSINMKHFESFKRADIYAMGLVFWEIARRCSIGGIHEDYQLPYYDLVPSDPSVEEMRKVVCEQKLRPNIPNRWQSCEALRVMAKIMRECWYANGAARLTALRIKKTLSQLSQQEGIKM
In words: TGFβ R1 autophosphorylation protocol (33P-ATP, phosphocellulose filter plate). The format is biochemical. The settings on record: 10 uM ATP, read-out: IC50 for Kinase Inhibition. In a few lines: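 Radiometric autophosphorylation: 170 nM enzyme with compound (≤1% DMSO), 10 uM ATP plus γ-33P-ATP, […] in 20 mM MOPS pH 7, 20 min at room temperature. Reaction stopped on phosphocellulose filter, washed with H3PO4 and ethanol, counted by scintillation.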

The mark [1] stands for this setting: 170 nM TGFβ R1, 20 minutes at room temperature.
[2] abbreviates: 170 nM TGFβ R1, room temperature 20 minutes.

`COc1cnc(-c2cc(Cl)ccc2F)nc1Nc1ccncc1C(=O)NCCCNCCC1O[C@H](COCc2ccccc2)[C@@H](OCc2ccccc2)[C@H](OCc2ccccc2)[C@H]1OCc1ccccc1` (stereo partly drawn) [Compound 99, 4-[2-(5-Chloro-2-fluoro-phenyl)-5-methoxy-pyrimidin-4-ylamino]-N-{3-[2-(3,4,5-tris-benzyloxy-6-benzyloxymethyl-tetrahydro-pyran-2-yl)-ethylamino]-propyl}-nicotinamide]: under setting [1], the half-maximal inhibitory concentration (IC50) was 610 nM.
Turning to `COc1cnc(-c2cc(Cl)ccc2F)nc1Nc1ccncc1C(=O)NCCNCCOC1O[C@H](COC(C)=O)[C@H](OC(C)=O)[C@H](OC(C)=O)[C@H]1OC(C)=O` (stereo partly drawn) [Compound 157, Acetic acid 3,4,5-triacetoxy-6-{2-[2-[{4-[2-(5-chloro-2-fluoro-phenyl)-5-methoxy-pyrimidin-4-ylamino]-pyridine-3-carbonyl}amino)-ethylamino]-ethoxy}-tetrahydro-pyran-2-ylmethyl-ester], under setting [1], the IC50 worked out at 25 nM.
Take `CC(C)c1cnc(-c2cc(Cl)ccc2F)nc1Nc1ccncc1C(=O)NCCCO` [Compound 188, 4-[2-(5-Chloro-2-fluoro-phenyl)-5-isopropyl-pyrimidin-4-ylamino]-N-(3-hydroxy-propyl)-nicotinamide]: under setting [2], the IC50 was found to be 5 nM.
Turning to `COc1cnc(-c2cc(Cl)ccc2F)nc1Nc1ccncc1C(=O)NCCCN1CC[C@@H](F)C1` [Compound 155, 4-[2-(5-Chloro-2-fluoro-phenyl)-5-methoxy-pyrimidin-4-ylamino]-N-[3-(3-fluoro-pyrrolidin-1-yl)-propyl]-nicotinamide], the 50% inhibitory concentration (IC50) under setting [1] was 8 nM.
Consider `COC(=O)[C@H]1C[C@@H](NC(=O)c2cnccc2Nc2nc(-c3cc(Cl)ccc3F)ncc2OC)CN1` [Compound 89, 4-({4-[2-(5-Chloro-2-fluoro-phenyl)-5-methoxy-pyrimidin-4-ylamino]-pyridine-3-carbonyl}-amino)-pyrrolidine-2-carboxylic acid methyl ester], for which, under setting [1], the IC50 is 190 nM.
As for `COc1cnc(-c2cc(Cl)ccc2F)nc1Nc1cc[n+]([O-])cc1C(=O)NC[C@H](C)O` [Compound 197, 4-[2-(5-Chloro-2-fluoro-phenyl)-5-methoxy-pyrimidin-4-ylamino]-N-(2-hydroxy-propyl)-1-oxy-nicotinamide], under setting [2], the IC50 amounted to 675 nM.
In the case of `COc1cnc(-c2cc(Cl)ccc2F)nc1Nc1ccncc1C(=O)NCCCNS(C)(=O)=O` [Compound 237, 4-[2-(5-Chloro-2-fluoro-phenyl)-5-methoxy-pyrimidin-4-ylamino]-N-(3-methanesulfonylamino-propyl)-nicotinamide], the IC50 under setting [2] turned out to be 63 nM.
For `COc1cnc(-c2cc(Cl)ccc2F)nc1Nc1ccncc1C(=O)NCCCNC(=O)Nc1ccccc1` [Compound 65, 4-[2-(5-Chloro-2-fluoro-phenyl)-5-methoxy-pyrimidin-4-ylamino]-N-[3-(3-phenyl-ureido)-propyl]-nicotinamide], under setting [1], the IC50 came to 590 nM.
As for `COc1cnc(-c2cc(Cl)ccc2F)nc1Nc1ccncc1C(=O)NCCOCCO` [Compound 104, 4-[2-(5-Chloro-2-fluoro-phenyl)-5-methoxy-pyrimidin-4-ylamino]-N-[2-(2-hydroxy-ethoxy)-ethyl]-nicotinamide], the half-inhibitory concentration (IC50) under setting [1] came out at 310 nM.
As for `CC(C)c1cnc(-c2cc(Cl)ccc2F)nc1Nc1ccncc1C(=O)NCCCN1C[C@H](O)C[C@H]1C(=O)N1CCCC1` [Compound 191, 4-[2-(5-Chloro-2-fluoro-phenyl)-5-isopropyl-pyrimidin-4-ylamino]-N-{3-[4-hydroxy-2-(pyrrolidine-1-carbonyl)-pyrrolidin-1-yl]-propyl}-nicotinamide], the IC50 under setting [2] amounted to 13 nM.
`COc1cnc(-c2cc(Cl)ccc2F)nc1Nc1ccncc1C(=O)NCC(C)(C)O` [Compound 58, 4-[2-(5-Chloro-2-fluoro-phenyl)-5-methoxy-pyrimidin-4-ylamino]-N-(2-hydroxy-2-methyl-propyl)-nicotinamide]: the half-maximal inhibitory concentration (IC50) under setting [1] was determined as 470 nM.
As for `COc1cnc(-c2cc(Cl)ccc2F)nc1Nc1ccncc1C(=O)NCCCn1ccnc1` [Compound 10, 4-[2-(5-Chloro-2-fluoro-phenyl)-5-methoxy-pyrimidin-4-ylamino]-N-(3-inidazol-1-yl-propyl)-nicotinamide], under setting [1], the IC50 was 60 nM.
As for `COc1cnc(-c2cc(Cl)ccc2F)nc1Nc1ccncc1C(=O)N1CC[C@H](F)C1` [Compound 220, {4-[2-(5-Chloro-2-fluoro-phenyl)-5-methoxy-pyrimidin-4-ylamino]-pyridin-3-yl}-(3-fluoro-pyrrolidin-1-yl)-methanone], the 50% inhibitory concentration (IC50) under setting [2] amounted to 249 nM.
`CC(C)c1cnc(-c2cc(Cl)ccc2F)nc1Nc1cc[n+]([O-])cc1C(=O)NCC(C)(C)O` [Compound 196, 4-[2-(5-Chloro-2-fluoro-phenyl)-5-isopropyl-pyrimidin-4-ylamino]-N-(2-hydroxy-2-methyl-propyl)-1-oxy-nicotinamide]: under setting [2], the half-inhibitory concentration (IC50) was determined as 245 nM.
Take `O=C(NCCCn1ccnc1)c1cnccc1Nc1nc(-c2cc(Cl)ccc2F)ncc1C1CCCC1` [Compound 219]: the IC50 under setting [2] was found to be 44 nM.
As to `COc1cnc(-c2cc(Cl)ccc2F)nc1Nc1ccncc1C(=O)NCCNCCOC1O[C@H](CO)[C@@H](O)[C@H](O)[C@H]1O` (stereo partly drawn) [Compound 144, 4-[2-(5-chloro-2-fluoro-phenyl)-5-methoxy-pyrimidin-4-ylamino]-N-{2-[2-(3,4,5-trihydroxy-6-hydroxymethyl-tetrahydro-pyran-2-yloxy)-ethylamino]-ethyl)-nicotinamide], the concentration for half-maximal inhibition (IC50) under setting [1] was 10 nM.
Take `CN(C)c1cnc(-c2cc(Cl)ccc2F)nc1Nc1ccncc1C(=O)NCCNCCO` [Compound 50]: under setting [1], the IC50 turned out to be 20 nM.
On to `COc1cnc(-c2cc(Cl)ccc2F)nc1Nc1ccncc1C(=O)NCCCNC(C)=O` [Compound 94, N-(3-Acetylamino-propyl)-4-[2-(5-chloro-2-fluoro-phenyl)-5-methoxy-pyrimidin-4-ylamino]-nicotinamide], for which, under setting [1], the IC50 was found to be 1340 nM.
Consider `COc1cnc(-c2cc(Cl)ccc2F)nc1Nc1ccncc1C(=O)NCCCNC(=O)COC1O[C@H](COC(C)=O)[C@@H](OC(C)=O)[C@H](OC(C)=O)[C@H]1OC(C)=O` (stereo partly drawn) [Compound 133], for which the IC50 under setting [1] came out at 327 nM.
As to `CNCCNC(=O)c1cnccc1Nc1nc(-c2cc(Cl)ccc2F)ncc1N1CCCC1` [Compound 22, 4-[2-(5-Chloro-2-fluoro-phenyl)-5-pyrrolidin-1-yl-pyrimidin-4-ylamino]-N-(2-methylamino-ethyl)-nicotinamide], under setting [1], the IC50 came to 100 nM.
Consider `COC[C@@H]1OC(CCNCCCNC(=O)c2cnccc2Nc2nc(-c3cc(Cl)ccc3F)ncc2OC)[C@@H](OC)[C@H](OC)[C@H]1OC` (stereo partly drawn) [Compound 125, 4-[2-(5-Chloro-2-fluoro-phenyl)-5-methoxy-pyrimidin-4-ylamino]-N-{3-[2-(3,4,5-trimethoxy-6-methoxymethyl-tetrahydro-pyran-2-yl)-ethylamino]-propyl}-nicotinamide], for which, under setting [1], the 50% inhibitory concentration (IC50) stood at 32 nM.
On to `COc1cnc(-c2cc(Cl)ccc2F)nc1Nc1ccncc1C(=O)NCCNCC[C@H]1C[C@H](O)[C@@H](CO)O1` [Compound 173, 4-[2-(5-Chloro-2-fluoro-phenyl)-5-methoxy-pyrimidin-4-ylamino]-N-{2-[2-(4-hydroxy-5-hydroxymethyl-tetrahydro-furan-2-yl)-ethylamino]-ethyl}-nicotinamide], for which, under setting [2], the IC50 was 6 nM.
On to `CC(C)c1cnc(-c2cc(Cl)ccc2F)nc1Nc1ccncc1C(=O)NC1CCN(C)CC1` [Compound 178, 4-[2-(5-Chloro-2-fluoro-phenyl)-5-isopropyl-pyrimidin-4-ylamino]-N-(1-methyl-piperidin-4-yl)-nicotinamide], for which, under setting [2], the half-inhibitory concentration (IC50) was found to be 3 nM.
As to `COc1cnc(-c2cc(Cl)ccc2F)nc1Nc1ccncc1C(=O)N[C@H]1CCNC1` [Compound 128, 4-[2-(5-Chloro-2-fluoro-phenyl)-5-methoxy-pyrimidin-4-ylamino]-N-pyrrolidin-3-yl-nicotinamide], the IC50 under setting [1] stood at 8 nM.
With `CC(C)c1cnc(-c2cc(Cl)ccc2F)nc1Nc1ccncc1C(=O)NC[C@H](C)OP(=O)(O)O` [Compound 234, Phosphoric acid mono-[2-{[4-[2-(5-chloro-2-fluoro-phenyl}-5-isopropyl-pyrimidin-4-ylamino]-pyridine-3-carbony}-amino)-1-methyl-ethyl] ester], the 50% inhibitory concentration (IC50) under setting [2] was determined as 178 nM.
On to `COc1cnc(-c2cc(Cl)ccc2F)nc1Nc1ccncc1C(=O)N[C@@H]1C[C@H](C(=O)N(C)C)N(C(=O)OC(C)(C)C)C1` [Compound 106, 4-({4-[2-(5-Chloro-2-fluoro-phenyl)-5-methoxy-pyrimidin-4-ylamino]-pyridine-3-carbonyl}-amino)-2-dimethyl carbamoyl-pyrrolidine-1-carboxylic acid tert-butyl ester], for which, under setting [1], the half-maximal inhibitory concentration (IC50) stood at 4810 nM.
For `COc1cnc(-c2cc(Cl)ccc2F)nc1Nc1ccncc1C(=O)NCCCNC(=O)COC1O[C@H](CO)[C@@H](O)[C@H](O)[C@H]1O` (stereo in doubt) [Compound 135, 4-[2-(5-Chloro-2-fluoro-phenyl)-5-methoxy-pyrimidin-4-ylamino]-N-{3[2-(3,4,5-trihydroxy-6-hydroxymethyl-tetrahydro-pyran-2-yloxy)-acetylamino]-propyl)-nicotinamide], the 50% inhibitory concentration (IC50) under setting [1] is 60 nM.
